# From patent publication EP2829536A1, “4-Nitro-5-dichloromethylpyrazol derivatives for the treatment of infectious diseases” (priority 2013, dated 2015)
# Entries after “also recorded” stand apart in the source; their conditions may differ. Read-outs that look alike come from different tables or passages of the source.
# How the values were obtained:
# [1] = system: M. tuberculosis H37Rv; assay: Minimal inhibitory concentration by resazurin microtiter assay (REMA); type: cell-based; settings: Mycobacterium tuberculosis, 168 h, 7 days incubation, read-out: (MIC) against M. tuberculosis H37Rv
# [2] = system: L929 cell line; assay: MTT assay, effect on proliferation (5 days); type: cell-based; settings: Mus musculus, L929, 120 h
# [3] = system: L929 cell line; assay: MTT assay, acute toxic effect (24 h); type: cell-based; settings: Mus musculus, L929, 24 h; 1 day (acute toxic effect)
# [4] = system: M. bovis BCG; type: cell-based
# [5] = Hepatic microsomal stability; type: in vitro ADME, mice
# [6] = system: H37Rv Pasteur M. tuberculosis strain; assay: Effectivity in mice infected with M. tuberculosis (bacillary load in lung and spleen); type: in vivo; settings: for p (Lungs) / p (Spleen): vs sham
# Experimental: Lx079 as well as two other components, Lx059 which is 10% DMSO in PBS buffer and Lx069 which is a combination of ethambutol (0.8 mg/ml) and myxopyronine (0.2 mg/ml), were tested for drug effectivity in mice. Two controls were included in the study (sham, non treated; and treated with Isoniazide (INH, 25 mg/kg).
# The animals were infected at time point 0 with M. tuberculosis through an airborne infection apparatus (Glas-col Inc., Terre Haute, IN, USA) for infection with a low dose of H37Rv Pasteur M. tuberculosis strain. Nebulization provided an approximate uptake of 20-50 bacilli by mice lungs. The treatments and controls results were processed blindly. The experiment was run including 10 C57BL/6 mice per group. A volume of 0.2mL of each treatment was administered orally every day for 5 days, on week 2 post infection.
# Mice were euthanized on week 3 with isoflurane (inhalation excess), and lung and spleen samples removed to and mechanically disrupted in order to obtain tissue homogenates to be plated cultured in Becton Dickinson 7H11 Middlebrook agar (Bennex Ltd, Shannon, Ireland) and incubated at 37 °C. Viable bacteria (Colony Forming Units, CFUs) were counted four weeks after, data being recorded as the log of the number of CFUs recovered per organ. The results of the different groups were represented graphically, compared and evaluated for statistically significant differences (non parametric comparison between each candidate and each control, Mann Whitney test), with the differences being considered significant at P≤0.05 (Graphpad software).
# The effect on the bacillary load of each candidate results have been logarithmically represented as CFU/mL in the graphs attached. The lung and spleen results of each candidate and controls evaluated have been represented together (as box and whiskers, 5-95 percentiles plotted) and also per candidate with sham (results of each mouse and median and standard deviation plotted). Statistically significant differences (p<0.05) are marked with * if existing between the evaluated group and sham.
# [7] = system: M. bovis BCG; assay: microbe, parasite or virus in culture; type: cell-based; settings: Mycobacterium tuberculosis variant bovis BCG
# [8] = system: PtK2 cells; assay: Effect on cell morphology / endoplasmic reticulum by immunocytochemistry (ICC); type: cell-based, rat kangaroo; settings: for morphological effect / ER stress: PtK2 cells, overnight
# Experimental: Cell lines and media: Cells were grown at 37°C and 5% CO2 in the following media supplemented with 10 % FBS(Gibco): • L-929 cells (mouse connective tissue fibroblast: Dulbecco's modified Eagle's medium (DMEM), Lonza • PtK2 cells (rat kangaroo kidney epithelial cells): Minimum Essential Medium (MEM) medium, supplemented with 1 % non-essential amino acids and 1 % glutamax, Invitrogen.
# The effects of the tested compounds on cell proliferation and the acute toxic effects were assayed in vitro on L929 cell line. The metabolic activity was measured by means of (MTT, (3-(4,5-Dimethylthiazol-2-yl)-2,5-diphenyltetrazolium bromide) cell survival colorimetric assay. Effect on proliferation: 60 µl of serial dilutions of the test compounds were added to 120 µl aliquots of a cell suspension (50,000 cells/ml) in 96-well microplates then incubated 5 days at 37°C and 5% CO2. 20 µl MTT dye were added to a final concentration of 0.5 mg/ml. After 2 h the precipitate of formazan crystals was centrifuged, and the supernatant discarded. After washing with PBS, the precipitate was dissolved in 100 µl of acidified propanol. The plates were stirred for 20 minutes and the optical density of the resulting color was measured at 590 nm. Acute toxic effect: It was investigated by plating 120 µl aliquots of a cell suspension (100,000-200,000 cells/ml) in 96-well microplates. The cells were incubated at 37°C and 5% CO2 and allowed to grow for two days to stop the cell propagation. Then 60 µl of serial dilutions of the test compounds were added and incubated for further 24h. Then the MTT assay was performed as described before. Results were expressed as the percentage of cellular viability in comparison to cells that were treated only with the vehicle. The IC50 values were determined as the concentrations at which cells developed 50% of the absorbance of untreated control cells as estimated from the dose-response curves of two parallel experiments. Immunofluorescence staining: The effects of substances on the phenotypical changes of cell shape and adhesion were investigatedin the potoroo (PtK2) cells after staining of the nucleus and the endoplasmic reticulum (ER). PtK2 cells were grown on cover slips in 4-well plates. semi-confluent cells were treated with test compounds and the plates were incubated over the night. The cells were fixed with cold methanol /acetone (1:1) for 10 min. Then the cells were washed with PBS and the primary antibody (anti GRP-94, thermoscientific) was added and incubated for 45 min and washed with PBS. Secondary antibody (Alexaflour goat anti-rat 488, Invitrogen) was then added to the cells and incubated for additional 45 min. Cells were washed with PBS and Cover slips were mounted in anti-fade mounting medium with DAPI (Invitrogen). Images were taken with a CCD camera attached to a fluorescence microscope.
# The effects of substances on the phenotypical changes of cell shape and adhesion were investigated by the technique of immunocytochemistry (ICC). The endoplasmic reticulum (ER) was investigated upon treatment of the potoroo cells (PtK2) cells with/without test compounds.
# PtK2 cells were grown on cover slips in 4-well plates. semi-confluent cells were treated with test compounds and the plates were incubated over the night. The cells were fixed with cold methanol /acetone for 10 min. Then the cells were washed with PBS and the primary antibody (anti GRP-94, thermoscientific) was added and incubated for 45 min and washed with PBS. […]
# [9] = mouse, in vivo
# [10] = female, C57/BL6, mouse, in vivo; for F (bioavailability): po
# Excerpt: (§1) Mice were weighed and checked according to the protocols and observation data sheets that were requested. Animals were followed for weight loss, apparent good health (bristled hair and wounded skin) and behaviour (signs of aggressiveness or isolation). Animals: Young adult (6-8 weeks old) female C57/BL6 mice, 20 mice for acute oral toxicity testing and 81 mice for PK experiment were used. The animals were nulliparous and non-pregnant weighing 20 ±1.5 g each. They were maintained in their cages provided with a standard laboratory rodent diet and unlimited supply of drinking water and were allowed to acclimatize to the laboratory conditions for seven days before starting the experiments. The temperature in the experimental animal room was kept at 22°C ± 3°C and the relative humidity was 50 ± 20 %. Lighting was artificial with the sequence 12 hours light and 12 hours dark. Substance formulation for in vivo model: Doses were prepared in 5% DMSO in sterile water for oral dosing through oral gavage at a dose volume of 0.3 ml, and in 5% DMSO in PBS, pH 7.4 for IV bolus injection via tail vein at a dose volume 0.1 ml.
# (§2) The animals were divided into one IV group (27 mice), 2 oral groups (24 mice each), control IV group (3 mice) and control oral group (3 mice). The IV group and one oral group were dosed with 12.5 mg/kg and the other oral group was dosed with 25 mg/kg, while the control groups received the vehicle. All blood samples were collected at 15 and 30 min and 1, 2, 4, 6, 8, and 24 h after oral dosing, and at 5, 15, and 30 min and 1, 2, 4, 6, 8, and 24 h following intravenous administration. The blood was collected from the control groups at 24 h. Mice were euthanized with isoflurane and a 0.3 mL aliquot of blood was collected via terminal bleed from three mice at each time point. Blood samples were collected in heparin as anticoagulant and plasma was harvested by centrifugation at 10,000 rpm for 2 minutes. Plasma samples were kept at -80 °C until analysis.
# [11] = in vivo; settings: female, C57/BL6, mouse; for bioavailability: F (bioavailability)
# Excerpt: as §1, §2
# [12] = Acute oral toxicity in mice; settings: for No. of dead mice: 5 mice, 14 days; for % Cumulative of dead mice: Reed-Muench method
# [13] = dose group Lx079-1 (dose not given)
# [14] = dose group Lx079-2 (dose not given)
# [15] = dose group Lx079-3 (dose not given)
# [16] = dose group Lx079-4 (dose not given)
# [17] = dose group Lx079-5 (dose not given)
# [18] = dose group Lx079-6 (dose not given)
structure (smiles),measurement,setting,value
"CNCCOc1nn(-c2c(Cl)cc(Cl)cc2Cl)c(C(Cl)Cl)c1[N+](=O)[O-].Cl [LX079, 2-((5-(Dichloromethyl)-4-nitro-1-(2,4,6-trichlorophenyl)-1H-pyrazol-3-yl)oxy)-N-methylethanaminium chloride]",MIC,[1],0.18 µg/mL
same,IC50,[2],2.2 µg/mL
same,IC50,[3],5.5 µg/mL
same,decrease of log CFU,"[4]; 2 µg/ml, 72 hours, in comparison to the untreated controls",around 2 log CFU
same,intracellular activity against M. bovis BCG,"[4]; infected macrophage model, Fig. 1",significant intracellular activity
same,t1/2 (in vitro),"[5]; 1 µM, mice microsomes 0.5 mg/mL, NADPH, 37 °C",5.937 ± 2.36 min
same,half-life at 1 µM,"[5]; mouse, pooled liver microsomes, pH 7.4, 1 µM, mice microsomes 0.5 mg/mL, NADPH, 37 °C, read-out: t1/2 (in vitro)",5.94 ± 2.36 min
same,microsomal CLint at 1 µM,"[5]; mouse, pooled mouse liver microsomes, pH 7.4, mice microsomes, corrected for binding to microsomes, read-out: CLint, inc",2820 ± 1120 µL/min/mg
same,CLint (hepatic intrinsic clearance),"[5]; scaled up from the in vitro t1/2, SMW: standard mouse weight",221.81± 88.23 ml/min/SMW
same,effect on the bacillary load in lungs and spleen compared to sham,"[6]; C57BL/6 mice, oral, every day for 5 days on week 2 post infection",decrease the bacillary load in both in lungs and spleen; also recorded: clear positive inhibitory effect on the survival of the TB pathogen
same,p (Lungs),[6]; [13],0.0032
same,p (Spleen),[6]; [13],0.0009
same,p (Lungs),[6]; [14],0.0002
same,p (Spleen),[6]; [14],0.0343
same,p (Lungs),[6]; [15],0.0010
same,p (Spleen),[6]; [15],0.0002
same,p (Lungs),[6]; [16],0.0004
same,p (Spleen),[6]; [16],0.0117
same,p (Lungs),[6]; [17],0.0002
same,p (Spleen),[6]; [17],0.0164
same,p (Lungs),[6]; [18],0.0002
same,p (Spleen),[6]; [18],0.0031
same,MIC,[7],0.6 µg/mL
same,morphological effect / ER stress,[8]; 5µg/ml,did not produce morphological abnormalities
same,morphological effect / ER stress,[8]; 6.6 µg/ml,induced massive ER stress
same,morphological changes of the treated cells after immunofluorescence staining,[8]; concentration 25 times higher than the MIC,no morphological changes
same,"microscopic examination of liver, spleen, lungs, and kidneys",[9],No pathological abnormalities were detected
same,C0,"[10]; iv, 12.5 mg/kg",660 ± 70 ng/mL
same,CL,"[10]; iv, 12.5 mg/kg",394 ± 20.3 mL/min/kg
same,K (elimination rate constant),"[10]; iv, 12.5 mg/kg",1.79 ± 0.44
same,t1/2,"[10]; iv, 12.5 mg/kg",25.8 min
same,time in which the plasma concentration was exceeding the in vitro MIC (T > MIC),"[10]; iv, 12.5 mg/kg",less than 1 hour
same,F (bioavailability),[10]; 12.5 mg/kg,27.583 ± 2.457%
same,F (bioavailability),[10]; 25 mg/kg,32.662 ± 7.715%
same,AUC,"[11]; iv, 12.5 mg/kg",530 ± 30 ng·h/mL
same,C0,"[11]; iv, 12.5 mg/kg",660 ± 70 ng/mL
same,clearance,"[11]; iv, 12.5 mg/kg",394 mL/min/kg
same,half-life,"[11]; iv, 12.5 mg/kg",25.8 ± 16.2 min
same,AUC,"[11]; po, 12.5 mg/kg",150 ± 20 ng·h/mL
same,bioavailability,"[11]; po, 12.5 mg/kg",27.6 ± 2.46%
same,AUC,"[11]; po, 25 mg/kg",350 ± 70 ng·h/mL
same,bioavailability,"[11]; po, 25 mg/kg",32.7 ± 7.72%
same,No. of dead mice,[12]; 62.5 mg/kg single oral dose,0
same,% Cumulative of dead mice,[12]; 62.5 mg/kg single oral dose,0%
same,No. of dead mice,[12]; 125 mg/kg single oral dose,2
same,% Cumulative of dead mice,[12]; 125 mg/kg single oral dose,22%
same,No. of dead mice,[12]; 250 mg/kg single oral dose,1
same,% Cumulative of dead mice,[12]; 250 mg/kg single oral dose,42.85%
same,LD50 at 14 days,"[12]; female, C57/BL6, mouse, in vivo, po",> 250 mg/kg
"CNCCOc1nn(-c2c(Cl)cc(C(F)(F)F)cc2Cl)c(C(Cl)Cl)c1[N+](=O)[O-].Cl [Lx088, 2-((1-(2,6-Dichloro-4-(trifluoromethyl)phenyl)-5-(dichloromethyl)-4-nitro-1H-pyrazol-3-yl)oxy)-N-methylethanaminium chloride]",MIC,[7],0.781 µg/mL
same,morphological effect / ER stress,[8]; 6.6 µg/ml,produced less ER stress
same,morphological effect / ER stress,[8]; 13.3 µg/ml,induced massive ER stress
"CCNCCOc1nn(-c2c(Cl)cc(Cl)cc2Cl)c(C(Cl)Cl)c1[N+](=O)[O-].Cl [Lx089, 2-((5-(Dichloromethyl)-4-nitro-1-(2,4,6-trichlorophenyl)-1H-pyrazol-3-yl)oxy)-N-ethylethanaminium chloride]",MIC,[7],0.781 µg/mL
